Measurements as given in ChEMBL document CHEMBL5390228, “Unnatural Endotype B PPAPs as Novel Compounds with Activity against Mycobacterium tuberculosis” (J Med Chem, 2023).
The source made the active and inactive calls. The rule behind the calls is not given here.

Legend:
[1] = tested on: Mycobacterium tuberculosis; test: Antimicrobial activity in Mycobacterium tuberculosis H37Rv ATCC 27294 assessed as reduction in metabolic activity by measuring incorporation radioactively labeled [3H] uracil into live bacilli preincubated for 72 hrs followed by [3H] uracil addition and measured after 18 hrs by beta-counter analysis; format: functional, organism-based; settings: for Activity: time 90.0 hrs
[2] = biological target: T1, Nuclear receptor subfamily 1 group I member 2 (Homo sapiens, UniProt O75469); test: Activation of GAL4-DBD fused human PXR LBD expressed in human HepG2 cells co-expressing GAL4-responsive UAS-driven firefly luciferase and renilla luciferase assessed as increase in luciferase activity at 1 to 20 uM incubated for 24 hrs by Dual-Glo luciferase assay relative to control; format: cell-based; settings: hepg2, 24 h, dose 1-20 µM
T1 sequence (O75469 whole entry): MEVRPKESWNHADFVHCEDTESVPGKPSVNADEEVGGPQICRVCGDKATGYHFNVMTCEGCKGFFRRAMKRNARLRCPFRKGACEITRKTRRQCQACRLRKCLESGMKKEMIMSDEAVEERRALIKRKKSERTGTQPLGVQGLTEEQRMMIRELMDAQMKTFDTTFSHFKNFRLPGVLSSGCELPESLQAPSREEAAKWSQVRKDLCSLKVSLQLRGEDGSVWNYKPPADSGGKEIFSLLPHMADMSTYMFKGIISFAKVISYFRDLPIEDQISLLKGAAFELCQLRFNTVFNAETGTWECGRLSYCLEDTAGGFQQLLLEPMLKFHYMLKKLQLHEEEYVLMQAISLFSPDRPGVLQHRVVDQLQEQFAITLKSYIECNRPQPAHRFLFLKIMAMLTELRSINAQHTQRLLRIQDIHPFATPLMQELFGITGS

Cytochrome P450 2C8 [3] = biological target: T2, Cytochrome P450 2C8 (Homo sapiens, UniProt P10632); test: Induction of CYP2C8 activity in human HepaRG cells at 10 uM incubated for 96 hrs by liquid chromatography with tandem mass spectrometry-based substrate cocktail assay; format: ADME, cell-based
T2 sequence (P10632 whole entry): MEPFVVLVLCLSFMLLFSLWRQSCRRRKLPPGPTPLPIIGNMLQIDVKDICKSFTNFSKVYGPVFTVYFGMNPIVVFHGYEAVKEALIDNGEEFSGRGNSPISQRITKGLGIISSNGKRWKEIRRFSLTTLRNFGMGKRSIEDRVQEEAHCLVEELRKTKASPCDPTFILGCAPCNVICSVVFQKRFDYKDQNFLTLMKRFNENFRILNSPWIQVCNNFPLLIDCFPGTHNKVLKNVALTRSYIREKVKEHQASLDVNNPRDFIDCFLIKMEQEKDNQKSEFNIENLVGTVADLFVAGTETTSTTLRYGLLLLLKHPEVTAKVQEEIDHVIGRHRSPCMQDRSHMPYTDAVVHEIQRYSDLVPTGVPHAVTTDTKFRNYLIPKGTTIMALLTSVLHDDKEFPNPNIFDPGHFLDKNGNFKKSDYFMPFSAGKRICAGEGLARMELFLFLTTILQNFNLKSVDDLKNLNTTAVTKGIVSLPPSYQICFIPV

[4] = tested on: Mycobacterium tuberculosis; test: Antimicrobial activity in Mycobacterium tuberculosis H37Rv ATCC 27294 infected in human Primary macrophage cells assessed as reduction in intracellular growth of bacteria incubated for 4 days by CFU assay; format: functional, organism-based; settings: H37Rv ATCC 27294, Primary macrophage, 96 h
PBMC = test: Cytotoxicity against human PBMC cells assessed as reduction in cell viability at 2.5 to 75 uM incubated for 18 hrs by PrestoBlue reagent based fluorescence assay; format: toxicity; settings: dose 2.5-75 µM
Macrophage = test: Cytotoxicity against human Primary macrophage cells assessed as reduction in cell viability at 2.5 to 75 uM incubated for 18 hrs by PrestoBlue reagent based fluorescence assay; format: toxicity; settings: dose 2.5-75 µM
A549 = test: Cytotoxicity against human A549 cells assessed as reduction in cell viability at 2.5 to 75 uM incubated for 48 hrs by resazurin reagent based fluorescence assay; format: toxicity; settings: a549, 48 h, dose 2.5-75 µM
[5] = tested on: Mycobacterium tuberculosis; test: Antimicrobial activity in Mycobacterium tuberculosis expressing mCherry infected in human Primary macrophage cells assessed as reduction in number of intracellular bacilli at 7.5 uM by DAPI staining based Confocal laser scanning microscopy; format: functional, organism-based
HepaRG = test: Cytotoxicity against human HepaRG cells assessed as reduction in cell viability at 60 uM incubated for 24 hrs by WST-1 assay; format: toxicity, cell-based
HepG2 [6] = test: Cytotoxicity against human HepG2 cells assessed as reduction in cell viability at 10 to 20 uM incubated for 48 hrs by WST-1 assay; format: toxicity, cell-based; settings: hepg2, 48 h, dose 10-20 µM
[7] = Induction of CYP3A4 mRNA expression in human HepaRG cells at 1 to 20 uM incubated for 24 hrs by RT-qPCR analysis
[8] = biological target: T1, Nuclear receptor subfamily 1 group I member 2; test: Transactivation of human PXR in human HepG2 cells coexpressing firefly luciferase gene under control of CYP3A4 promoter and renilla luciferase assessed as increase in luciferase activity at 1 to 20 uM incubated for 48 hrs by Dual-Glo luciferase assay; settings: hepg2, 48 h
[9] = Induction of CYP3A4 protein expression in human HepaRG cells at 1 to 20 uM incubated for 24 hrs by targeted mass spectrometry-based immunoassay
HepG2 [10] = test: Cytotoxicity against human HepG2 cells assessed as fold reduction in cell viability upto 20 uM incubated for 96 hrs by alamarBlue Cell Viability assay relative to control; format: toxicity, cell-based; settings: hepg2, 96 h
Cytochrome P450 3A4 = Cytochrome P450 3A4 (Homo sapiens, UniProt P08684); test: Induction of CYP3A4 activity in human HepaRG cells at 5 to 10 uM incubated for 96 hrs by liquid chromatography with tandem mass spectrometry-based substrate cocktail assay; format: ADME, cell-based; settings: dose 5-10 µM
Sequence of Cytochrome P450 3A4 (P08684 whole entry): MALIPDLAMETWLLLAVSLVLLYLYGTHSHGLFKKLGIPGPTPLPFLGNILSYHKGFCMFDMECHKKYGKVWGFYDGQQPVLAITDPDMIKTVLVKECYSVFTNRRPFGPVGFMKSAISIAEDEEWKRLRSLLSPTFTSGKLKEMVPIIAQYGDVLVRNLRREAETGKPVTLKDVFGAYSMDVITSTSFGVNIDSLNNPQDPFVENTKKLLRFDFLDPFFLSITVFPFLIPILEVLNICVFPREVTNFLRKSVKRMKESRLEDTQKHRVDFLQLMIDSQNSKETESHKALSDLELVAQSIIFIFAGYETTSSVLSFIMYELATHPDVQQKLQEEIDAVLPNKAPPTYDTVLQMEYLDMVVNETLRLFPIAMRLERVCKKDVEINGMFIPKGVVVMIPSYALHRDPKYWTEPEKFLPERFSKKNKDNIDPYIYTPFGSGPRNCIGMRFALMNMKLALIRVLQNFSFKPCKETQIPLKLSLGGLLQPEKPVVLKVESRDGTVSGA

Cytochrome P450 1A2 = biological target: T3, Cytochrome P450 1A2 (Homo sapiens, UniProt P05177); test: Induction of CYP1A2 activity in human HepaRG cells at 5 to 10 uM incubated for 96 hrs by liquid chromatography with tandem mass spectrometry-based substrate cocktail assay; format: ADME, cell-based; settings: dose 5-10 µM
T3 sequence (P05177 whole entry): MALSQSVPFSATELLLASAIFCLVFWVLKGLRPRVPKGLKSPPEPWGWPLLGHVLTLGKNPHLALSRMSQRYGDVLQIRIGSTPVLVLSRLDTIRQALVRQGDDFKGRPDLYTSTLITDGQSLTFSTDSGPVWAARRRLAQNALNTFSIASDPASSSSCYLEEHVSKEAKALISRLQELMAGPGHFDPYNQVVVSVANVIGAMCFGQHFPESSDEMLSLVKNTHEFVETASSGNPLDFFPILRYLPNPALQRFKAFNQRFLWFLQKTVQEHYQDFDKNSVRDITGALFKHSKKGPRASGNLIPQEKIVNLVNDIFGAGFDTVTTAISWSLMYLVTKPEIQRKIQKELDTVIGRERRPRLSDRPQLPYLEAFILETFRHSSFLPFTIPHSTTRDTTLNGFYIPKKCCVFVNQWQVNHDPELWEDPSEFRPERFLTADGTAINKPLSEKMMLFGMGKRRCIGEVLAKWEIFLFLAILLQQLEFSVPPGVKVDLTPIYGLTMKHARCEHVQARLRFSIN

Cytochrome P450 2B6 = biological target: T4, Cytochrome P450 2B6 (Homo sapiens, UniProt P20813); test: Induction of CYP2B6 activity in human HepaRG cells at 5 to 10 uM incubated for 96 hrs by liquid chromatography with tandem mass spectrometry-based substrate cocktail assay; format: ADME, cell-based; settings: dose 5-10 µM
T4 sequence (P20813 whole entry): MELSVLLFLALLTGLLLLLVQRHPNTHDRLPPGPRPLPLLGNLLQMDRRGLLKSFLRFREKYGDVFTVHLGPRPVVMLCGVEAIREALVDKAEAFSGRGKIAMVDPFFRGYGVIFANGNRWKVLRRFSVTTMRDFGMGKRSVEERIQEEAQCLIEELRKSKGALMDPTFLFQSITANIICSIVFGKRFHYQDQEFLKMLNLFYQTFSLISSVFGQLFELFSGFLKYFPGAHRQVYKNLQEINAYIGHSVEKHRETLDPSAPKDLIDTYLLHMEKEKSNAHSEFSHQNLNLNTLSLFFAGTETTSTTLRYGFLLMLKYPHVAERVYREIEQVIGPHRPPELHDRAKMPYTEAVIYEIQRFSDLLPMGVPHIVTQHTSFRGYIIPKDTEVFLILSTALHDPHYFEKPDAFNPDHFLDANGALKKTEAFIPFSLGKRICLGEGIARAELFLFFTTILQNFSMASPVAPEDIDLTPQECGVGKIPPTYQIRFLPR

Cytochrome P450 2C8 [11] = biological target: T2, Cytochrome P450 2C8; test: Induction of CYP2C8 activity in human HepaRG cells at 5 to 10 uM incubated for 96 hrs by liquid chromatography with tandem mass spectrometry-based substrate cocktail assay; format: ADME, cell-based; settings: dose 5-10 µM
Cytochrome P450 2C9 = Cytochrome P450 2C9 (Homo sapiens, UniProt P11712); test: Induction of CYP2C9 activity in human HepaRG cells at 5 to 10 uM incubated for 96 hrs by liquid chromatography with tandem mass spectrometry-based substrate cocktail assay; format: ADME, cell-based; settings: dose 5-10 µM
Sequence of Cytochrome P450 2C9 (P11712 whole entry): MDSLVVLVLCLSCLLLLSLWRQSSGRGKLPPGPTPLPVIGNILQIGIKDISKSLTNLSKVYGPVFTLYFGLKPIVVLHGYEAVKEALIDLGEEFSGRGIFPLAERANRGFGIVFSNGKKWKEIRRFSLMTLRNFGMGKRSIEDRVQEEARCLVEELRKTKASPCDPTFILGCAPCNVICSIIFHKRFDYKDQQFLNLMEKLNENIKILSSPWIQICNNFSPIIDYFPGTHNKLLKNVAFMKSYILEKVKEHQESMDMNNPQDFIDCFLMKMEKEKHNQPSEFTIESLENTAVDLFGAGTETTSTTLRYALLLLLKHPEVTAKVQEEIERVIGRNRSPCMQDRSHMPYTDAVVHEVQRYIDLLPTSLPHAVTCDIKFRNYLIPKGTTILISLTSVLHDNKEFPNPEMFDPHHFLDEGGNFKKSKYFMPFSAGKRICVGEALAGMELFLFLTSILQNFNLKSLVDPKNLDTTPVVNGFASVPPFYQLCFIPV

Cytochrome P450 2C19 = Cytochrome P450 2C19 (Homo sapiens, UniProt P33261); test: Induction of CYP2C19 activity in human HepaRG cells at 5 to 10 uM incubated for 96 hrs by liquid chromatography with tandem mass spectrometry-based substrate cocktail assay; format: ADME, cell-based; settings: dose 5-10 µM
Sequence of Cytochrome P450 2C19 (P33261 whole entry): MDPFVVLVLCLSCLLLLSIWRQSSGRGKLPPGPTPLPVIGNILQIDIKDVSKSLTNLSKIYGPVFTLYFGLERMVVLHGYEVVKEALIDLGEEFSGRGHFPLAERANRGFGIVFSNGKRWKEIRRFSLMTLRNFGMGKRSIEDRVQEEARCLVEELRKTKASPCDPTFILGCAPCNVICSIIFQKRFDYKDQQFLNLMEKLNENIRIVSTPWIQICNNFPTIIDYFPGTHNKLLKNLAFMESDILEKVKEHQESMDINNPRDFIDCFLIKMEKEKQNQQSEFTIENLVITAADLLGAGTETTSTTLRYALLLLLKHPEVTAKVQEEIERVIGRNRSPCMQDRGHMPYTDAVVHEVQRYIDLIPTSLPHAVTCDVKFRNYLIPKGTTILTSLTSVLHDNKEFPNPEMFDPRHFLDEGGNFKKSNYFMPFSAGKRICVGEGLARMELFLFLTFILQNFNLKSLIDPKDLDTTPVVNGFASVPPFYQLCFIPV

CC(=O)C1=C(O)[C@@]2(CC=C(C)C)C[C@H](CC=C(C)C)C(C)(C)[C@@](CC=C(C)C)(C1=O)C2=O
Activity [1]: inactive

C=CC[C@@]12C(=O)C(C(=O)c3ccccc3)=C(O)[C@@](Cc3ccccc3)(C[C@H](CC=C(C)C)C1(C)C)C2=O
Activity [1]: inactive

CO[C@H]1/C=C/O[C@@]2(C)Oc3c(C)c(O)c4c(O)c(c(/C=N/N5CCN(C)CC5)c(O)c4c3C2=O)NC(=O)/C(C)=C\C=C\[C@H](C)[C@H](O)[C@@H](C)[C@@H](O)[C@@H](C)[C@H](OC(C)=O)[C@@H]1C [RIFAMPIN]
Activity [2]: Active
Activity (Cytochrome P450 2C8 [3]): Not Active

C=CC[C@@]12C(=O)C(C(=O)c3ccccc3)=C(O)[C@@](Cc3ccccc3)(C[C@H](Cc3ccccc3)C1(C)C)C2=O
Activity [1]: inactive

CC(C)=CC[C@H]1C[C@@]2(CC=C(C)C)C(=O)[C@](CC=C(C)C)(C(=O)C(C(=O)C(C)C)=C2O)C1(C)C
Activity [1]: inactive

C=CC[C@@]12C[C@H](CC=C(C)C)C(C)(C)[C@@](CC=C)(C(=O)C(C(C)=O)=C1[O-])C2=O.[Na+]
IC50 [1]: 38.8 µM
Activity [1]: Active
IC50 [4]: 6.8 µM
Activity (PBMC): Non-Toxic
Activity (Macrophage): Non-Toxic
Activity (A549): Non-Toxic
Activity [5]: Active
Activity (HepaRG): < 80%
Activity (HepG2 [6]): Toxic
Activity [2]: Dose-Dependent Effect
Activity [7]: Not Active
Activity [8]: Dose-Dependent Effect
Activity [9]: Not Active
fold change (FC) (HepG2 [10]): 5
Activity (Cytochrome P450 3A4): Not Active
Activity (Cytochrome P450 1A2): Not Active
Activity (Cytochrome P450 2B6): Not Active
Activity (Cytochrome P450 2C8 [11]): Not Active
Activity (Cytochrome P450 2C9): Not Active
Activity (Cytochrome P450 2C19): Not Active

C=CC[C@@]12C[C@H](CC=C(C)C)C(C)(C)[C@@](CC=C)(C(=O)C(C(=O)c3ccccc3)=C1O)C2=O
Activity [1]: inactive
